Experimental data reported in patent US8329674B2, “Film forming dental compositions and related methods” (3M Innovative Properties Company, priority 2007, dated 2012).
Counter-ions that a name gives are not always drawn. Like-named read-outs stand apart in the source and are kept apart here.

Tests used:
Format in all cases: cell-based
[1] = tested on: Streptococcus mutans culture (ATCC 25175); assay: Qualitative Biofilm Inhibition Test; set-up: key: +: refers to a visual assessment that a compound inhibited biofilm formation; −: refers to a visual assessment that either a compound did not inhibit biofilm formation, or that bacteria grew in the culture broth; details: 1 weight percent compound; visible biofilm on disc after incubation and rinse
Protocol: During the procedure for the Quantitative Biofilm Inhibition Test, each cured disc was visually examined after it was removed from the broth (and rinsed with water) and before it was placed in a test tube containing five milliliters of 1M aqueous sodium hydroxide solution. The presence or absence of visible biofilm on a disc was noted. The Quantitative Biofilm Inhibition Test was carried out using five compounds of the dental composition and eleven comparative compounds, each at a concentration of 1 weight percent. […] In addition, the Qualitative Biofilm Inhibition Test was carried out for each Example and Comparative Example, in which each disc was visually examined before it was placed in the tube containing the aqueous sodium hydroxide solution.

[2] = tested on: Streptococcus mutans culture (ATCC 25175); assay: Quantitative Biofilm Inhibition Test; details: for activity at 1 % w/w: Streptococcus mutans, ATCC25175, 20 h, read-out: OD Ratio
Protocol: Compounds of the dental compositions of the invention, and comparative compounds, were evaluated for biofilm inhibition activity. Composite dental restorative (available under the trade designation “FILTEK SUPREME” from 3M ESPE Dental Products, St. Paul, Minn.) was placed in a 15 millimeter by 1 millimeter stainless steel die. […] While the die containing the composite restorative was under compression, the composite was irradiated for two minutes using a Model ACE light source (available from SCHOTT North America, Inc., Auburn, N.Y.). The discs of cured composite restorative were then further cured using a Model UniXS light box (available from Heraeus Kulzer, Inc., Armonk, N.Y.) for 1.5 minutes.
The samples were incubated at 37° C. for approximately twenty hours, after which time the cured discs were removed from the broth and were gently rinsed with water. Each disc was placed in a separate test tube containing five milliliters of 1M aqueous sodium hydroxide solution, and each test tube was then sonicated for two minutes using a model SH1012-40-8 ultrasonic generator (manufactured by Branson Ultrasonics Corp., Danbury, Conn.) for two minutes to dislodge biofilm on the disc. The optical absorbance (optical density) of each aqueous sodium hydroxide solution was then measured at 550 nm using a Model ULTROSPEC III UV-visible spectrophotometer (manufactured by Pharmacia AB, Uppsala, Sweden). For each compound of the dental composition, five discs were separately incubated in broth and were evaluated separately to provide five optical density measurements. The average of the five optical density measurements was then calculated. […] The average optical density of the control or comparative samples was determined as described above. […] The ratio was considered to be proportional to the average amount of biofilm on the five cured discs, i.e., relatively low average optical density ratio was considered to be indicative of inhibition of biofilm formation. The ratio for the control was 100%.
The Quantitative Biofilm Inhibition Test was carried out using five compounds of the dental composition and eleven comparative compounds, each at a concentration of 1 weight percent. […] In addition, the Qualitative Biofilm Inhibition Test was carried out for each Example and Comparative Example, in which each disc was visually examined before it was placed in the tube containing the aqueous sodium hydroxide solution.

Streptococcus mutans = assay: Bacterial Kill Rate Test
Protocol: Compounds of the dental compositions of the invention were evaluated for extent of bacterial kill in culture. Overnight cultures of Streptococcus mutans in brain heart infusion broth (10^6 CFU/mL) was mixed with a 0.1 weight percent, 0.5 weight percent, or 1.0 weight percent aqueous solution of each compound of the dental composition. After a period of 2, 5, or 10 minutes, 1.0 mL of the mixture was transferred via pipette into a first tube containing 9.0 mL of Letheen broth to provide a 10^−1 dilution. The contents of the tube were mixed using a vortex mixer. A 1.0 mL aliquot of this sample was transferred via pipette into a second tube containing 9.0 mL of Letheen broth to provide a 10^−2 dilution. A 0.1 mL aliquot of each dilution was plated and spread in duplicate on sheep blood agar in Petri dishes, using a “hockey stick” applicator, to provide 10^−2 and 10^−3 dilutions, respectively, on each plate. The plates were incubated at 37° C. for a period of 48 to 72 hours, and then the colony forming units were counted. The CFU counts were compared and the log reduction in the counts were calculated. In Table 3, the bacteria count reduction (log reduction) is the difference between the log of the initial bacteria count and the log of the bacteria count after 2, 5, and 10 minutes.

[3] = tested on: Streptococcus mutans culture (ATCC 25175); assay: Biofilm Inhibition Test: concentration of compound to inhibit biofilm formation at varied sucrose; details: tested at 50 or 150 millimolar
Protocol: Compounds of the dental compositions of the invention, and comparative compounds, were evaluated for biofilm inhibition activity. Composite dental restorative (available under the trade designation “FILTEK SUPREME” from 3M ESPE Dental Products, St. Paul, Minn.) was placed in a 15 millimeter by 1 millimeter stainless steel die. The open ends of the die were then covered with polyester film and the die was subjected to a pressure of 68.95 MPa using a hydraulic press. While the die containing the composite restorative was under compression, the composite was irradiated for two minutes using a Model ACE light source (available from SCHOTT North America, Inc., Auburn, N.Y.). The discs of cured composite restorative were then further cured using a Model UniXS light box (available from Heraeus Kulzer, Inc., Armonk, N.Y.) for 1.5 minutes.
The cured discs of composite restorative were then immersed in ten milliliters of Streptococcus mutans culture (ATCC 25175; 10^6 CFU/mL) prepared in brain heart infusion broth that contained 1.0 weight percent sucrose and 1 weight percent of a compound of the dental composition. The samples were incubated at 37° C. for approximately twenty hours, after which time the cured discs were removed from the broth and were gently rinsed with water. Each disc was placed in a separate test tube containing five milliliters of 1M aqueous sodium hydroxide solution, and each test tube was then sonicated for two minutes using a model SH1012-40-8 ultrasonic generator (manufactured by Branson Ultrasonics Corp., Danbury, Conn.) for two minutes to dislodge biofilm on the disc. The optical absorbance (optical density) of each aqueous sodium hydroxide solution was then measured at 550 nm using a Model ULTROSPEC III UV-visible spectrophotometer (manufactured by Pharmacia AB, Uppsala, Sweden). For each compound of the dental composition, five discs were separately incubated in broth and were evaluated separately to provide five optical density measurements. The average of the five optical density measurements was then calculated. […] The average optical density of the control or comparative samples was determined as described above. The ratio, expressed as a percentage, of the average optical density for each compound sample to the average optical density for a control sample was calculated by dividing the average optical density for each compound sample by the average optical density for a control sample and multiplying the result by one hundred. The ratio was considered to be proportional to the average amount of biofilm on the five cured discs, i.e., relatively low average optical density ratio was considered to be indicative of inhibition of biofilm formation. The ratio for the control was 100%.
During the procedure for the Quantitative Biofilm Inhibition Test, each cured disc was visually examined after it was removed from the broth (and rinsed with water) and before it was placed in a test tube containing five milliliters of 1M aqueous sodium hydroxide solution. The presence or absence of visible biofilm on a disc was noted.
The Biofilm Inhibition Test was carried out, using four compounds of the dental composition, in broth containing 1.0, 2.5, or 5.0 weight percent sucrose and the exemplary compounds of the dental composition at a concentration of either 50 millimolar or 150 millimolar. In Table 2, the millimolar concentration of compound that inhibited biofilm formation is given for each concentration of sucrose. An entry of “n/t” means that the compound was not tested in broth containing the corresponding concentration of sucrose.

[4] = 1 weight percent compound, broth with 1.0 weight percent sucrose, approx. twenty hours at 37° C., average OD at 550 nm as percentage of control (100%)

Row | Compound | Visual Assessment [1] | activity at 1 % w/w [2, 4] [%] | Bacteria Count Reduction (log reduction) (Streptococcus mutans; 0.5 wt % compound, 2 min.) | Bacteria Count Reduction (log reduction) (Streptococcus mutans; 0.5 wt % compound, 5 min.) | Bacteria Count Reduction (log reduction) (Streptococcus mutans; 0.5 wt % compound, 10 min.) | further results
1 | O=C(CO)[C@@H](O)[C@@H](O)[C@H](O)CO [D-Tagatose] | − | 145 |  |  |  | 
2 | C[C@H](O)[C@@H](O)[C@@H](O)[C@H](O)C=O [Fucose] | − | 121 |  |  |  | 
3 | N[C@H]1C(O)O[C@H](CO)[C@H](O)[C@@H]1O (stereo partly drawn) [Galactosamine HCl, D-galactosamine] | + | 0 | 0.89 | 1.08 | 1.31 | Bacteria Count Reduction (log reduction) (Streptococcus mutans; 0.1 wt % compound, 2 min.): 1.13 log reduction; Bacteria Count Reduction (log reduction) (Streptococcus mutans; 0.1 wt % compound, 5 min.): 1.00 log reduction; Bacteria Count Reduction (log reduction) (Streptococcus mutans; 0.1 wt % compound, 10 min.): 0.96 log reduction
4 | O=C[C@H](O)[C@@H](O)[C@@H](O)[C@H](O)CO [Galactose] | − | 87 |  |  |  | 
5 | N[C@H]1C(O)O[C@H](CO)[C@@H](O)[C@@H]1O (stereo partly drawn) [Glucosamine HCl, D-glucosamine] | + |  | 0.99 | 0.98 | 0.93 | Bacteria Count Reduction (log reduction) (Streptococcus mutans; 0.1 wt % compound, 2 min.): 1.03 log reduction; Bacteria Count Reduction (log reduction) (Streptococcus mutans; 0.1 wt % compound, 5 min.): 0.94 log reduction; Bacteria Count Reduction (log reduction) (Streptococcus mutans; 0.1 wt % compound, 10 min.): 0.97 log reduction; Bacteria Count Reduction (log reduction) (Streptococcus mutans; 1.0 wt % compound, 2 min.): 0.93 log reduction; Bacteria Count Reduction (log reduction) (Streptococcus mutans; 1.0 wt % compound, 5 min.): 0.99 log reduction; Bacteria Count Reduction (log reduction) (Streptococcus mutans; 1.0 wt % compound, 10 min.): 0.97 log reduction; Concentration of Compound to Inhibit Biofilm Formation ([3]; 1 wt% Sucrose): 50 mM; Concentration of Compound to Inhibit Biofilm Formation ([3]; 2.5 wt% Sucrose): 50 mM; Concentration of Compound to Inhibit Biofilm Formation ([3]; 5 wt% Sucrose): 50 mM; OD Ratio [2, 4]: 0%
6 | OC[C@H]1O[C@@H](O[C@H]2[C@H](O)[C@@H](O)C(O)O[C@@H]2CO)[C@H](O)[C@@H](O)[C@H]1O (stereo partly drawn) [Lactose] | − |  |  |  |  | activity at 1 % w/w [2]: 82%
7 | OC[C@H]1O[C@@H](O[C@@H]2[C@@H](O)[C@H](O[C@@H]3[C@@H](O)[C@H](O[C@H]4[C@H](O)[C@@H](CO)OC(O)[C@@H]4O)O[C@H](CO)[C@H]3O)O[C@H](CO)[C@H]2O)[C@H](O)[C@@H](O)[C@@H]1O (stereo partly drawn) [Laminaritetraose] | − |  |  |  |  | OD Ratio [2, 4]: 97%
8 | CC(=O)N[C@H]1C(O)O[C@H](CO)[C@H](O)[C@@H]1O (stereo partly drawn) [N-Acetylgalactosamine] | − | 138 |  |  |  | 
9 | CC(=O)N[C@H]1C(O)O[C@H](CO)[C@@H](O)[C@@H]1O (stereo partly drawn) [N-Acetylglucosamine, reference compound] | − | 83 | 1.12 | 1.16 | 0.99 | Bacteria Count Reduction (log reduction) (Streptococcus mutans; 0.1 wt % compound, 2 min.): 1.09 log reduction; Bacteria Count Reduction (log reduction) (Streptococcus mutans; 0.1 wt % compound, 5 min.): 1.02 log reduction; Bacteria Count Reduction (log reduction) (Streptococcus mutans; 0.1 wt % compound, 10 min.): 1.04 log reduction; Bacteria Count Reduction (log reduction) (Streptococcus mutans; 1.0 wt % compound, 2 min.): 1.05 log reduction; Bacteria Count Reduction (log reduction) (Streptococcus mutans; 1.0 wt % compound, 5 min.): 1.12 log reduction; Bacteria Count Reduction (log reduction) (Streptococcus mutans; 1.0 wt % compound, 10 min.): 1.06 log reduction
10 | CC(=O)N[C@@H]1C(O)O[C@H](CO)[C@@H](O)[C@@H]1O (stereo partly drawn) [N-Acetylmannosamine, reference compound] | − | 51 | 0.93 | 1.54 | 1.61 | 
11 | OC[C@@H](O)[C@H](O)[C@@H](O)CO [Xylitol] | − | 123 |  |  |  | 
12 | OC[C@H]1O[C@@H](OC[C@H]2O[C@@H](O)[C@H](O)[C@@H](O)[C@@H]2O)[C@H](O)[C@@H](O)[C@@H]1O [beta-Gentiobiose] | − |  |  |  |  | OD Ratio [2, 4]: 124%
